≈ marks a conversion by molar mass, not a printed value. Calls of active or inactive are those of the source. The calls are words filed in the database; no cut-off is given here.

Data set [1] addresses T1, P2Y purinoceptor 14 (Homo sapiens, UniProt Q15391).
T1 sequence (Q15391 whole entry): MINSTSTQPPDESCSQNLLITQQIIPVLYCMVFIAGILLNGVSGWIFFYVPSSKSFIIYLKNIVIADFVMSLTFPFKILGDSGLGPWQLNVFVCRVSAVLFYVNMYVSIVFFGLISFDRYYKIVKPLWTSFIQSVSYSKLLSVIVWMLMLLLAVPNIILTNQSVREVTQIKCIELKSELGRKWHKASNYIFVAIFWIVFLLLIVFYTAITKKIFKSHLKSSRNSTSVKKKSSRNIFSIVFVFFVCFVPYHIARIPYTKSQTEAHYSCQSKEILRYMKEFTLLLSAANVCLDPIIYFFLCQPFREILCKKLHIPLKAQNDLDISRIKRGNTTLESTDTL
Briefly: Antagonist activity at P2Y14R (unknown origin) stably expressed in HEK293 cells assessed as inhibition of forskolin-induced cAMP production by cAMP-Glo assay. It counts as functional, cell-based. A general note: cAMP levels reflect the balance of adenylyl cyclase and phosphodiesterase activity.

Data set [2] is described as follows: Aqueous solubility of compound in SGF at pH 1.2 by spectrometry. Format: ADME. Particulars: SGF, read-out: solubility.
Data set [3] can be described thus: Aqueous solubility of compound in SIF at pH 6.8 by spectrometry. It counts as ADME. The note with it: simulated gi fluid.
The nature of data set [4]: Aqueous solubility of compound in double distilled water at pH 7 by spectrometry. Format: physicochemical. The note with it: buffer.
Data set [5] is described as follows: Aqueous solubility of compound in PBS at pH 7.4 by spectrometry. It counts as physicochemical. Particulars: buffer.
Data set [6] can be described thus: Metabolic stability in human liver microsomes measured for 90 mins. It counts as ADME, Microsome. The note with it: 1.5 h. On the technique in general: Liver microsomes are vesicles of endoplasmic reticulum, rich in cytochrome P450 enzymes.
The nature of data set [7]: Half life in Sprague-Dawley rat at 1 mg/kg, iv. Format: ADME, organism-based. Particulars: in vivo.
The nature of data set [8]: AUC (all) in Sprague-Dawley rat at 1 mg/kg, iv. Particulars: in vivo. Format: ADME, organism-based.
Data set [9] is described as follows: Cmax in Sprague-Dawley rat at 5 mg/kg, po. Format: ADME, organism-based. The note with it: in vivo.
Data set [10] can be described thus: Half life in Sprague-Dawley rat at 5 mg/kg, po. Particulars: in vivo. Format: ADME, organism-based.
Data set [11] is described as follows: Tmax in Sprague-Dawley rat at 5 mg/kg, po. It counts as ADME, organism-based. Particulars: in vivo.
Data set [12] in a line: AUC (all) in Sprague-Dawley rat at 5 mg/kg, po. It counts as ADME, organism-based. Particulars: in vivo.
Data set [13] is described as follows: Oral bioavailability in Sprague-Dawley rat at 5 mg/kg. Format: ADME, organism-based. Particulars: in vivo.
The subject of data set [14] is Mus musculus. Nature of the data set: Anti-colitis activity in C57BL/6 mouse model of DSS-induced colitis assessed as increase in body weight at 100 uM, REC for 7 days administered daily. Particulars: time 7.0 day. It counts as functional, organism-based.
For data set [15], the system named is Mus musculus. Briefly: Anti-colitis activity in C57BL/6 mouse model of DSS-induced colitis assessed as increase in colon length at 100 uM, REC for 7 days administered daily. Format: functional, organism-based. The note with it: time 7.0 day.
Data set [16] deals with Mus musculus. Briefly: Anti-colitis activity in C57BL/6 mouse model of DSS-induced colitis assessed as decrease in spleen weight index at 100 uM, REC for 7 days administered daily. Format: functional, organism-based. Particulars: time 7.0 day.
In data set [17] the test system is Mus musculus. Nature of the data set: Anti-colitis activity in C57BL/6 mouse model of DSS-induced colitis assessed as decrease in loose stools at 100 uM, REC for 7 days administered daily. It counts as functional, organism-based. Particulars: time 7.0 day.
Data set [18] relates to Mus musculus. Briefly: Anti-colitis activity in C57BL/6 mouse model of DSS-induced colitis assessed as decrease in rectal bleeding at 100 uM, REC for 7 days administered daily. The note with it: time 7.0 day. Format: functional, organism-based.
Data set [19] concerns Mus musculus. Nature of the data set: Anti-colitis activity in C57BL/6 mouse model of DSS-induced colitis assessed as decrease in endoscopic damage in colon at 100 uM, REC for 7 days administered daily. It counts as functional, organism-based. Particulars: time 7.0 day.
For data set [20], the system named is Mus musculus. Nature of the data set: Anti-colitis activity in C57BL/6 mouse model of DSS-induced colitis assessed as decrease in histological damage in colon at 100 uM, REC for 7 days administered daily by H and E staining based analysis. Format: functional, organism-based. The note with it: time 7.0 day.
The subject of data set [21] is Mus musculus. Nature of the data set: Anti-colitis activity in C57BL/6 mouse model of DSS-induced colitis assessed as increase in intestinal epithelial cells in colon at 100 uM, REC for 7 days administered daily by H and E staining based analysis by immunofluorescence based analysis. Particulars: time 7.0 day. Format: functional, organism-based.
In data set [22] the target is T2, P2Y purinoceptor 14 (Homo sapiens) (UniProt Q15391).
T2 sequence (whole entry): T1 sequence (Q15391 whole entry)
The note with it: HEK293, filed as antagonist, dose 100.0 nM.
Description: Antagonist activity at P2Y14R (unknown origin) stably expressed in HEK293 cells assessed as inhibition of forskolin-induced cAMP production at 100 nM by cAMP-Glo assay relative to control

Take `Cc1ccc(C(=O)Nc2cc(C(=O)O)sc2Oc2ccc(F)cn2)cc1`: the IC50 in data set [1] was determined as 0.4 nM. For the same compound, the solubility in data set [2] was 0.051 µg/mL (≈ 0.137 µM); in [3], 0.175 µg/mL (≈ 0.47 µM); in data set [4], 0.088 µg/mL (≈ 0.236 µM); in data set [5] it was 1.995 µg/mL (≈ 5.36 µM). Besides, the Stability result in data set [6] is listed as “Stable”. Moreover, the half-life in [7] is 21 min; in data set [10], 178 min. Moreover, the AUC in data set [8] amounted to 27924 ng·min/mL; in [12], 90744 ng·min/mL. In data set [9], this compound registered a Cmax of 0.518 µg/mL. In addition, the Tmax in [11] is 15 min. Further, the bioavailability in data set [13] is 65%. In addition, the result in data set [14], in data set [15], in data set [16], in data set [17], in data set [18] and in data set [19] was Active. Moreover, the result in data set [20] and in data set [21] was Active. In addition, the inhibition in data set [22] came out at 130%.

What is called IC50 is the midpoint of a concentration-inhibition curve. Usually solubility stands for the concentration that dissolves in the medium under given conditions. A word on the half-life: it is the time in which the quantity being followed falls by half. For orientation: AUC means the area under the concentration-time curve, a measure of exposure. Higher therefore signals high exposure. For orientation: Cmax means the peak of the concentration-time curve. Usually Tmax stands for the time from dosing to the highest level. The term bioavailability denotes the share of a dose that reaches the circulation, judged against a reference dose that is usually intravenous. Read a high bioavailability as much systemic uptake. For orientation: inhibition means the change of the read-out against control, counted positive when it falls.
